Experimental data: patent US8404738B2 (Hoffmann-La Roche Inc., priority 2011, dated 2013)

Key:
[1] = molecular target: T1, recombinant human HDAC8 (Homo sapiens, UniProt Q9BY41); test: HDAC8 inhibition: recombinant HDAC8 fluorometric assay; type: biochemical; conditions: recombinant human HDAC8, substrate Ac-Arg-His-Lys-Lys(ε-acetyl)-AMC; read-out: HDAC8 IC50
T1 construct: made in house; host or cells: insect cells
T1 sequence (Q9BY41 1-377): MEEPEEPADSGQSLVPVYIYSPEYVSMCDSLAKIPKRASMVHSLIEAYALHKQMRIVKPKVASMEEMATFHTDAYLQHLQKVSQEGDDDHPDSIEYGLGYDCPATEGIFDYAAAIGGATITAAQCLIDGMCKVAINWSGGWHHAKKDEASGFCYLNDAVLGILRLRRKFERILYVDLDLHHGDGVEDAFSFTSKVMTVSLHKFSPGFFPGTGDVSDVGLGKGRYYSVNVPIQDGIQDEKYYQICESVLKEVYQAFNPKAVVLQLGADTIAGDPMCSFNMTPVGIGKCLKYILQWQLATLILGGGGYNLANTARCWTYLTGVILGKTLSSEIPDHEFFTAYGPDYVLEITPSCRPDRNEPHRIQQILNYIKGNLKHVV
Outline: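 Recombinant human HDAC8 from insect cells was preincubated with compound for 15 min at rt, then given Ac-Arg-His-Lys-Lys(ε-acetyl)-AMC substrate for 30 min at rt. IC50 came from normalized percent inhibition with curve fitting.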

[2] = tested on: p21 promoter-luciferase construct; test: p21 reporter gene induction (HeLa cells, p21 promoter-luciferase construct); conditions: for p21 RP3: relative gene level of p21 compared to MS275 at 3 μM; for p21 RP10: relative level of p21 compared to MS275 at 10 μM; for p21 RP30: relative level of p21 compared to MS275 at 30 μM;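 on all read-outs here: transfected HeLa cells exposed to compound for 15 h, luciferase luminescence read from lysates, p21 promoter lacks p53 site, proxy for cellular HDAC1/2/3 inhibition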
[3] = molecular target: T2, HDAC6 (Homo sapiens, UniProt Q9UBN7); test: Tubulin acetylation cytoblot assay (A549 cells); type: cell-based; conditions: 17-18 h incubation, tubulin acetylation as marker of HDAC6 inhibition, read-out: Tub-Ac EC50
T2 construct: endogenous in cells; host or cells: A549 cells
T2 sequence (Q9UBN7 1-1215): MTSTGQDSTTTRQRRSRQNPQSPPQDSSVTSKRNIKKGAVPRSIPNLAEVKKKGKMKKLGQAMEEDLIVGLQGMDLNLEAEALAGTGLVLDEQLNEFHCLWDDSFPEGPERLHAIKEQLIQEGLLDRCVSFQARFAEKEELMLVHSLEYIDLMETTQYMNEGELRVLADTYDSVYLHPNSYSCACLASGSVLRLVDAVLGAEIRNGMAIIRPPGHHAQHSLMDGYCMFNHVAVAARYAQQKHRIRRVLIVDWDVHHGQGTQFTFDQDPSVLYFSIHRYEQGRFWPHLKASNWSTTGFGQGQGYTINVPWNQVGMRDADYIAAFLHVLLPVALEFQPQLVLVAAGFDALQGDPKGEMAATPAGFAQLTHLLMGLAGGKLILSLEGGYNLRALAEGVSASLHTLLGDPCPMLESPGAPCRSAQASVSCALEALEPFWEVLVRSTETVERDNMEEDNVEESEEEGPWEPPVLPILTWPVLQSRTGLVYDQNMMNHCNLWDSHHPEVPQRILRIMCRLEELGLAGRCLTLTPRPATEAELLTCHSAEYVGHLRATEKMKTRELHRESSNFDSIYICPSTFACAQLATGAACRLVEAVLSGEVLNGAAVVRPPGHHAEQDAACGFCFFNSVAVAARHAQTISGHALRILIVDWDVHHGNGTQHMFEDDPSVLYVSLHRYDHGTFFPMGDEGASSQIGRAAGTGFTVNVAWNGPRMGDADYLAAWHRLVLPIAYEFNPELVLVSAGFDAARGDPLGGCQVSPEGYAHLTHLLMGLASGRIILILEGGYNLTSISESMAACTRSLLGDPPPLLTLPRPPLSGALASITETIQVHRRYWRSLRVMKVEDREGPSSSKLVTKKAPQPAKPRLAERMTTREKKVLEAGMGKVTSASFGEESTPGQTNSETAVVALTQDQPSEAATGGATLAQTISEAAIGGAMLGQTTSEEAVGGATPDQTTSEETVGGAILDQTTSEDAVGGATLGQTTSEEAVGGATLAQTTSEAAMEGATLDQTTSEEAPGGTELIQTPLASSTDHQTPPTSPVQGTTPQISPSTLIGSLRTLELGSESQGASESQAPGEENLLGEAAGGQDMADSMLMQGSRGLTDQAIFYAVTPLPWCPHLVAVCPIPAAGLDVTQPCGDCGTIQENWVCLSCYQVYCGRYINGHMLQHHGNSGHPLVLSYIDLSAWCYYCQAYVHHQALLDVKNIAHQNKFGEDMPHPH
Procedure: Tubulin Acetylation Induction by Novel Compounds: Tubulin Acetylation Cytoblot Assay.
Tubulin acetylation is a PD marker for HDAC6 inhibition. The extent of tubulin acetylation represents the inhibitory effect on HDAC6.
Novel compounds were tested for their ability to inhibit HDAC6 using a cell-based deacetylation assay. Tubulin acetylation was detected by the anti-acetylated tubulin antibody (Sigma) and horse radish peroxidase (HRP) conjugated secondary antibody (KangChen Bio. Tech.). […] 20 μl of diluted compound solution was transferred to the cell culture plate and incubated for 17-18 h. After medium removal and fixation by formaldehyde (3.7% paraformaldehyde in TBS), the cells in the plates were treated with 180 μl of −20° C. MeOH and incubated for 5 min at rt. The cell lysis was incubated with 75 μl of primary anti-acetylated tubulin antibody and secondary HRP conjugated antibody solution (1:750 anti-acetylated tubulin, 1:750 HRP conjugated anti-mouse IgG in antibody dilution buffer not containing sodium azide) for 4 h at 4° C. By adding the HRP substrate, enhanced chemiluminescence (ECL) reagent (GE Healthcare) generated luminescence corresponding to the level of tubulin acetylation. So that 75 μl of ECL was added into the wells and the luminescence from each well was immediately quantified by the plate reader. Based on the luminescence reading, the Tub-Ac EC50s against HDAC6 of the tested compounds were calculated by plotting the curve with XLfit4.0 software. Inhibition %=[signal(sample)−Mean(bottom)]×100/[Mean(top)−Mean(bottom)]

O=C(NO)c1ccc(NC2CCN(c3cc(Cl)cc(Cl)c3)C2=O)cc1 (stereo not drawn) [Example 26, 4-[1-(3,5-Dichloro-phenyl)-2-oxo-pyrrolidin-3-ylamino]-N-hydroxy-benzamide]
IC50 [1]: 4690 nM
p21 RP3 [2]: 0.42
p21 RP10 [2]: 0.06
p21 RP30 [2]: 0.04
EC50 [3]: 4940 nM

O=C(NO)c1ccc(NC2CCN(c3c(Cl)cccc3Cl)C2=O)cc1 (stereo not drawn) [Example 27, 4-[1-(2,6-Dichloro-phenyl)-2-oxo-pyrrolidin-3-ylamino]-N-hydroxy-benzamide]
IC50 [1]: 750 nM
p21 RP3 [2]: 0.11
p21 RP10 [2]: 0.03
p21 RP30 [2]: 0.04
EC50 [3]: 2380 nM

Cc1cc(F)cc(C)c1N1CCC(Nc2ccc(C(=O)NO)cc2)C1=O (stereo not drawn) [Example 28, 4-[1-(4-Fluoro-2,6-dimethyl-phenyl)-2-oxo-pyrrolidin-3-ylamino]-N-hydroxy-benzamide]
IC50 [1]: 1860 nM
p21 RP3 [2]: 0.04
p21 RP10 [2]: 0.01
p21 RP30 [2]: 0.01
EC50 [3]: 4110 nM

O=C(NO)c1ccc(NC2CCN(c3ccc(Cl)c(CO)c3)C2=O)cc1 (stereo not drawn) [Example 29, 4-[1-(4-Chloro-3-hydroxymethyl-phenyl)-2-oxo-pyrrolidin-3-ylamino]-N-hydroxy-benzamide]
IC50 [1]: 750 nM
p21 RP3 [2]: 0.55
p21 RP10 [2]: 0.10
p21 RP30 [2]: 0.12
EC50 [3]: 13800 nM

O=C(NO)c1ccc(NC2CCN(c3cccc(Oc4ccccc4)c3)C2=O)cc1 (stereo not drawn) [Example 30, N-Hydroxy-4-[2-oxo-1-(3-phenoxy-phenyl)-pyrrolidin-3-ylamino]-benzamide]
IC50 [1]: 3210 nM
p21 RP3 [2]: 0.13
p21 RP10 [2]: 0.09
p21 RP30 [2]: 0.05
EC50 [3]: 2280 nM

O=C(NO)c1ccc(NC2CCN(c3ccc(Oc4ccccc4)cc3)C2=O)cc1 (stereo not drawn) [Example 31, N-Hydroxy-4-[2-oxo-1-(4-phenoxy-phenyl)-pyrrolidin-3-ylamino]-benzamide]
IC50 [1]: 4140 nM
p21 RP3 [2]: 0.09
p21 RP10 [2]: 0.07
p21 RP30 [2]: 0.05
EC50 [3]: 9780 nM

O=C(NO)c1ccc(NC2CCN(c3cccc(-c4ccccc4)c3)C2=O)cc1 (stereo not drawn) [Example 32, 4-(1-Biphenyl-3-yl-2-oxo-pyrrolidin-3-ylamino)-N-hydroxy-benzamide]
IC50 [1]: 710 nM
p21 RP3 [2]: 0.38
p21 RP10 [2]: 0.08
p21 RP30 [2]: 0.15
EC50 [3]: 700 nM

O=C(NO)c1ccc(NC2CCN(c3cccc(-n4cccc4)c3)C2=O)cc1 (stereo not drawn) [Example 33, N-Hydroxy-4-[2-oxo-1-(3-pyrrol-1-yl-phenyl)-pyrrolidin-3-ylamino]-benzamide]
IC50 [1]: 970 nM
p21 RP3 [2]: 0.45
p21 RP10 [2]: 0.41
p21 RP30 [2]: 0.18
EC50 [3]: 680 nM

O=C(NO)c1ccc(NC2CCN(c3ccc(-n4ccnc4)cc3)C2=O)cc1 (stereo not drawn) [Example 34, N-Hydroxy-4-[1-(4-imidazol-1-yl-phenyl)-2-oxo-pyrrolidin-3-ylamino]-benzamide]
IC50 [1]: 2890 nM
p21 RP3 [2]: 0.36
p21 RP10 [2]: 0.12
p21 RP30 [2]: 0.06
EC50 [3]: 10600 nM

O=C(NO)c1ccc(NC2CCN(c3cccc(-c4cnco4)c3)C2=O)cc1 (stereo not drawn) [Example 35, N-Hydroxy-4-[1-(3-oxazol-5-yl-phenyl)-2-oxo-pyrrolidin-3-ylamino]-benzamide]
IC50 [1]: 610 nM
p21 RP3 [2]: 0.44
p21 RP10 [2]: 0.25
p21 RP30 [2]: 0.20
EC50 [3]: 2040 nM

CN(C)CCOc1cccc(N2CCC(Nc3ccc(C(=O)NO)cc3)C2=O)c1 (stereo not drawn) [Example 36, 4-{1-[3-(2-Dimethylamino-ethoxy)-phenyl]-2-oxo-pyrrolidin-3-ylamino}-N-hydroxy-benzamide]
IC50 [1]: 490 nM
p21 RP3 [2]: 0.55
p21 RP10 [2]: 0.18
p21 RP30 [2]: 0.45
EC50 [3]: 2050 nM

O=C(NO)c1ccc(NC2CCN(c3cccc4ccccc34)C2=O)cc1 (stereo not drawn) [Example 37, N-Hydroxy-4-(1-naphthalen-1-yl-2-oxo-pyrrolidin-3-ylamino)-benzamide]
IC50 [1]: 930 nM
p21 RP3 [2]: 0.04
p21 RP10 [2]: 0.04
p21 RP30 [2]: 0.06
EC50 [3]: 2160 nM

O=C(NO)c1ccc(NC2CCN(c3ccc4ccccc4c3)C2=O)cc1 (stereo not drawn) [Example 38, N-Hydroxy-4-(1-naphthalen-2-yl-2-oxo-pyrrolidin-3-ylamino)-benzamide]
IC50 [1]: 1500 nM
p21 RP3 [2]: 0.50
p21 RP10 [2]: 0.02
p21 RP30 [2]: −0.02
EC50 [3]: 1060 nM

O=C(NO)c1ccc(NC2CCN(c3cccc4cccnc34)C2=O)cc1 (stereo not drawn) [Example 39, N-Hydroxy-4-(2-oxo-1-quinolin-8-yl-pyrrolidin-3-ylamino)-benzamide]
IC50 [1]: 570 nM
p21 RP3 [2]: 0.29
p21 RP10 [2]: 0.09
p21 RP30 [2]: 0.20
EC50 [3]: 13100 nM

O=C(NO)c1ccc(NC2CCN(c3cccc4ncccc34)C2=O)cc1 (stereo not drawn) [Example 40, N-Hydroxy-4-(2-oxo-1-quinolin-5-yl-pyrrolidin-3-ylamino)-benzamide]
IC50 [1]: 510 nM
p21 RP3 [2]: 0.25
p21 RP10 [2]: 0.26
p21 RP30 [2]: 0.21
EC50 [3]: 1310 nM
